Test results: a melting point compilation (Tetko et al.)

Compound | melting point [°C]
Cc1nnc(N2CCCC2)c(C(N)=S)c1C | 169 to 171
CC(C)(C(=O)O)c1ccc(F)cc1 | 89 to 91
NCC(c1cccs1)c1c[nH]c2ccccc12 (stereo unspecified) | 145 to 147
Nc1cc(Br)c(F)cc1Cl | 71 to 73
O=Cc1cc(CCl)ccc1O | 87 to 89
CCC(=O)NCC(=O)O | 121 to 123
CNc1ccc(Br)cc1N | 49 to 51
O=C(O)CC1(CO)CC1 | 68 to 70
CC(=Cc1ccc(F)cc1)C(=O)O | 150 to 152
Cc1nc2c(F)cccc2c(Cl)c1C(C)C | 47 to 49
CSCCC(NC(=O)c1ccc2ccccc2n1)C(=O)O (stereo unspecified) | 131 to 133
Cc1c(C(=O)O)nnn1-c1ccc(OC(C)C)cc1 | 159 to 161
O=C(O)c1cc(-c2cccs2)nc2ccccc12 | 199 to 201
Cc1cnc(N)nc1 | 194 to 196
O=C(O)Cc1cccc(OC(F)F)c1 | 52 to 54
Cc1ccccc1CNC(=O)CCl | 105 to 107
COc1ccc(Oc2ccc(C=O)cc2[N+](=O)[O-])cc1 | 67 to 69
Cn1cc(Br)cc1C(=O)O | 129 to 131
CC(=O)c1cccc(NC(=O)CCl)c1 | 112 to 114
N#Cc1ccc(Oc2ccc(N)cc2)cc1 | 110 to 112
N#Cc1cccc(COc2ccc(N)cc2Cl)c1 | 112 to 114
Cc1cnc2c(c1)NC(=O)CN2 | 249 to 251
CC(CCc1ccccc1)NS(=O)(=O)c1ccc(Cl)c(C(=O)O)c1 (stereo unspecified) | 94 to 96
COC(=O)c1ccccc1CS(=O)(=O)F | 89 to 91
Cc1ccc(F)c(C(=O)O)c1N | 139 to 141

Compound | melting point [°C]
Cc1nnc(SCCC(=O)O)[nH]1 | 131 to 133
COc1ccc(Cn2ncc3cc(C(=O)O)cnc32)c(OC)c1 | 205 to 207
COc1cccc(CC(NC(C)=O)C(=O)O)c1 (stereo unspecified) | 148 to 150
O=C1CCN(c2ccc([N+](=O)[O-])cc2)CC1 | 162 to 164
CC(=CC(=O)O)c1ccccc1Cl | 75 to 77
CN1CCN(C(=O)c2ccc(N)cc2)CC1 | 135 to 137
CC(C)(C)OC(=O)Nc1cccc(Cl)n1 | 74 to 76
Cc1cc2n(n1)CC(C(F)(F)F)CN2 (stereo unspecified) | 194 to 196
CC(Cl)C(=O)Nc1ccccc1Cc1ccccc1 (stereo unspecified) | 144 to 146
Cc1cc(O)cc(=O)n1CC(=O)O | 248 to 250
NC(=O)C1CCC1 | 151 to 153
CC(C)(C)OC(=O)N1CCC(OS(C)(=O)=O)CC1 | 84 to 86
C#Cc1cccc(NC(N)=O)c1 | 153 to 155
CN(C)C(=O)c1ccc(C=O)[nH]1 | 165 to 167
CNC1CCN(c2cc(OC)cc(OC)c2)C1 (stereo unspecified) | 52 to 54
O=C(O)C=C1CCC1 | 89 to 91
CC(C)(C)OC(=O)NC1CCN(CC(N)=S)CC1 | 169 to 171
CCc1ccsc1C(N)=O | 146 to 148
O=C(O)c1ccc(-c2nc(C3CC3)no2)cc1 | 241 to 243
CC(C)C(NC(=O)c1ccc(Br)cc1)C(=O)O (stereo unspecified) | 189 to 191
Cc1cc(C(=O)CCl)c(C)n1-c1nccs1 | 85 to 95
O=C(O)c1cc2ccccc2nc1N1CCCC1 | 169 to 171
O=c1[nH]c(CCl)nc2sc(-c3ccccc3)cc12 | 286 to 288
CC1CCc2c(sc3nc(CCl)[nH]c(=O)c23)C1 (stereo unspecified) | 180 to 182
COc1cc(C=O)cc(Cl)c1OC(F)F | 75 to 77

Compound | melting point [°C]
Cc1n[nH]c2ncc(N)cc12 | 186 to 188
[N-]=[N+]=Nc1ccc(Cl)cc1C(F)(F)F | 32 to 34
Fc1ccc(-c2cc[nH]n2)cc1 | 96 to 98
Cc1ccccc1C(=O)NC1CCNCC1 | 129 to 131
O=C(Cc1ccc(F)cc1)N1CCNCC1 | 65 to 67
O=C(O)c1cc(N2CCNC2=O)ccc1F | 319 to 321
Nc1cccc(Oc2cnccn2)c1 | 89 to 91
COc1cc(N)ncc1Br | 136 to 138
O=C(O)CCNC(=O)c1ccc2[nH]nnc2c1 | 229 to 231
O=C(c1ccc(S(=O)(=O)Cl)cc1F)N1CCCC1 | 79 to 81
NC(=O)Cc1ccc(Cl)cc1 | 183 to 185
O=C(O)Cn1nc(-c2ccccc2)oc1=O | 196 to 198
Cc1nn(-c2ccccc2F)c(C)c1N | 59 to 61
Cn1c(=O)[nH]c(=O)c2cc(C(=O)O)cnc21 | 316 to 318
S=C(NCc1cccnc1)NCc1cccnc1 | 157 to 159
O=C(O)c1ccccc1SCC(=O)N1CCCC1 | 115 to 117
Cc1cc(C)n2ncc(C(N)=NO)c2n1 | 227 to 229
Nc1ccccc1-c1nc(C2CC2)no1 | 84 to 86
CC(=O)Nc1ccc(-c2csc(N)n2)c(F)c1 | 204 to 206
CC1Cc2cc(S(=O)(=O)Cl)ccc2O1 (stereo unspecified) | 73 to 75
O=C(O)c1c[nH]nc1-c1ccccc1Cl | 255 to 257
COc1cc(C(=O)O)ccc1OCc1csc(C)n1 | 172 to 174
NC(=O)Nc1ccccc1Br | 199 to 201
Sc1ncnc2ccccc12 | 293 to 295
COC(=O)c1cc(C)nc2nc(S)[nH]c(=O)c12 | 259 to 261

Compound | melting point [°C]
Nc1ccccc1Cc1nc(-c2ccsc2)no1 | 118 to 120
O=C(NCCc1cccs1)C1Cc2ccccc2CN1 (stereo unspecified) | 86 to 88
CN1C(=O)CC(CO)C1c1cccc(Cl)c1 (stereo unspecified) | 101 to 103
Cc1cc(COc2ccc(C=O)cc2)oc1C(=O)O | 179 to 181
O=C(O)c1nc[nH]n1 | 132 to 136
Clc1ccc2nnc(C3CCCO3)n2n1 (stereo unspecified) | 139 to 141
CC(=O)N(C)CCCC(=O)O | 98 to 100
COC(=O)CCc1c(C)nn(-c2ccc(C(=O)O)cc2)c1C | 166 to 175
CCOC(=O)CN(C(=O)CCl)c1ccccc1 | 130 to 135
CC(C)(C)c1ncccc1O | 159 to 161
O=C(O)CCCCCNC(=O)NC1CCCCC1 | 138 to 140
CCCCCCOc1ccc(CO)cc1 | 32 to 34
CCc1ccnc(C(=O)O)c1 | 109 to 111
OCc1noc(-c2cccc(Cl)c2)n1 | 103 to 105
CCOC(=O)c1n[nH]sc1=N | 126 to 128
Nc1cccc(N2CCCNC2=O)c1 | 229 to 231
C#CCS(=O)(=O)CCNC(=O)OC(C)(C)C | 126 to 128
CCCS(=O)(=O)N1CCC(C(=O)O)CC1 | 146 to 148
O=Cc1ccc(N2CCNC(=O)C2)cc1 | 192 to 194
Cc1nnc(N2CCCC2)c(C#N)c1C | 146 to 148
CC(C)OCc1ccccc1CNC(=O)CCl | 40 to 42
ClCc1nc(-c2cccc(Br)c2)no1 | 47 to 49
CC(C)(C)NC(N)=S | 171 to 175
C#CCNC(=O)c1cccc(C#N)c1 | 132 to 134
CC1(c2ccsc2)NC(=O)NC1=O (stereo unspecified) | 151 to 153

Compound | melting point [°C]
O=[N+]([O-])c1ccc(OCc2ccco2)nc1 | 87 to 89
Nc1cc(F)ccc1Sc1ncn[nH]1 | 180 to 182
Fc1ccc(CNc2nnc(S)s2)cc1 | 168 to 170
O=C(O)c1csc(-c2ccccc2F)n1 | 159 to 161
O=C(O)Cc1cccc(OCc2ccccc2Cl)c1 | 64 to 66
NC(=O)CNC(=O)c1ccc(O)cc1 | 264 to 266
NNc1ncnc2nc[nH]c12 | 235 to 237
CC(C)(C)OC(=O)N1CCOCC1C#N (stereo unspecified) | 95 to 97
Cn1c(=O)[nH]c(=O)c2cc(S(N)(=O)=O)cnc21 | 311 to 313
Nc1[nH]nc(CCC2CCCCC2)c1-c1ccc(Br)cc1 | 168 to 170
Cc1ccc(NC(=O)NC(=O)CCl)c(C)c1 | 159 to 161
O=S(=O)(Cl)CCOc1ccccc1 | 37 to 39
Cc1nnc(S)n1CC(=O)N(C)C | 260 to 262
O=C(CCN1CCOCC1)c1cc2ccccc2o1 | 53 to 55
Cc1cc(C)n(-c2cncc(Cl)n2)n1 | 88 to 90
CN1CCN(C)c2cc(N)ccc2C1=O | 188 to 190
Nc1nncc(-c2ccc(OC(F)F)cc2)n1 | 223 to 225
COC(=O)Cn1ncc2c(Cl)ncnc21 | 66 to 68
CCN(CC)S(=O)(=O)c1ccc(=O)n(CC(=O)O)c1 | 182 to 189
Cc1cc(F)c(S(N)(=O)=O)cc1[N+](=O)[O-] | 159 to 161
O=C(O)C1CC(O)CN1C(=O)c1ccc(F)cc1 (stereo unspecified) | 206 to 208
COc1cc(C=O)c2c(c1)CC(C)O2 (stereo unspecified) | 71 to 73
Cc1cn(-c2ccccc2)nc1N | 119 to 121
O=Cc1ccc(C(=O)O)cc1Cl | 218 to 220
COC(=O)c1ccc(C(=O)O)s1 | 194 to 196

Compound | melting point [°C]
O=C(O)c1ccccc1OCCOc1ccccc1 | 84 to 86
Cc1nn(CCO)c2nc(C3CC3)cc(C(=O)O)c12 | 184 to 186
CCOC(=O)/C(C#N)=C\Nc1ccc(F)cc1Cl | 168 to 170
Nc1nnc(Cc2ccsc2)s1 | 177 to 179
O=c1oc2ccc(O)cc2s1 | 171 to 173
Cn1cncc1CO | 112 to 114
N#CC1(N)CCN(Cc2ccccc2)CC1 | 67 to 69
CCOC(=O)c1cnn(-c2ccc(C(=O)O)cc2)c1C(F)(F)F | 175 to 177
Cc1cc(C=O)c(C)n1C1CC1 | 71 to 75
Oc1cccc2[nH]ncc12 | 164 to 166
CCCCCC(=O)Nc1cc(OC)c(OC)cc1C(=O)O | 178 to 180
CC(C)(C(=O)O)c1cccc(C#N)c1 | 91 to 93
CC(=O)c1cccc(OCCOc2cccc(C(C)=O)c2)c1 | 117 to 119
NS(=O)(=O)c1ccc(S)nc1 | 242 to 244
O=C(O)COc1ccc2c3c(c(=O)oc2c1)CCC3 | 170 to 172
CC(C)(C)NC(=O)Cc1ccc(N)cc1 | 113 to 115
Cc1nc(O)c2c(n1)CN(Cc1ccccc1)CC2 | 211 to 213
Cc1ccc2[nH]cnc2c1C | 169 to 171
O=C(O)c1cccn1Cc1ccccc1 | 124 to 126
Nc1ccc(-n2cc[nH]c2=O)cc1 | 217 to 219
N#Cc1csc(C(=O)O)c1 | 224 to 226
